Reference: patent US20150026842A1, “METHOD OF CONTROLLING SUDDEN DEATH SYNDROME WITH FLUTRIAFOL” (CHEMINOVA A/S, priority 2013, published 2015)

Experiments:
Fusarium virguliforme = assay: Mycelial colony growth of Fusarium virguliforme on flutriafol-amended PDA; assay type: cell-based
Protocol: Inhibition of Fusarium virguliforme was tested in the following example:
The flutriafol composition used in the example was TOPGUARD (125 g/L flutriafol SC). Each pathogen was grown out on fresh potato dextrose agar (commercial PDA), assessed and used to seed 2× autoclaved rice for inoculums development. At 7-10 days, two infested rice grains of each pathogen (2 per pathogen type) was placed at equal distances on flutriafol-amended PDA and incubated at 27-29° C. Mycelial colony diameter from each rice grain was measured at 1, 3, 5 and 7 days from grain placement. The included tables and data sets illustrate the differences in mycelia growth in response to various concentrations of the fungicide for one of the SDS pathogen types, Fusarium virguliforme.

[1] = tested on: Sudden Death Syndrome (SDS); assay: Field trial: flutriafol applied pre-emergence to soybean for control of Sudden Death Syndrome; assay type: in vivo
Protocol: The determination of the efficacy and selectivity of flutriafol fungicide when applied pre-emergence to soybean for control of Sudden Death Syndrome (SDS) was tested in the following example:
The experiment was conducted in a Drummer silty clay loam soil with a pH of 6.8 and 3.0% organic matter. The experiment was set up as a randomized complete block with four replications. Plots were four 30 inch rows or a total of 10 ft. wide by 40 ft. long. Plot site was conventionally tilled and the trial was established on May 15, 2013, by planting NK S36-B6, a sudden death syndrome susceptible soybean variety. Seed was planted 1.5 inches deep and the seeding rate was 140,000 seeds/A. Topguard (a commercially available flutriafol SC formulation comprising 125 g/l) was applied at planting in-furrow in a 3-5 inch T-band perpendicular to the row with Teejet 4001E nozzles in a spray volume of 2 GPA. Topguard rates applied were 0.13, 0.195, 0.26 lb ai/acre (corresponding to 145.7, 218.6, 291.4 g ai/ha, respectively). These correspond to rates of 16, 24, or 32 fl oz of product/acre, respectively. One treatment of a 3-5 inch band of 32 fl oz/A Topguard was applied on May 21 as an ‘At Cracking’ application immediately prior to crop emergence. Trial was inoculated with SDS on sterile sorghum media that was applied in-furrow with a gandy box at planting at a rate of 25 ml per 20 ft of row. Data was collected from the two center rows from each plot.
Drip irrigation was installed so the trial had no moisture stress throughout the season. On August 12, 19 and 30, soybean sudden death syndrome (SDS) incidence (0-100%) and severity (0-9) were evaluated. An SDS disease index (SDS DX) was created by multiplying the % Incidence by the % Severity and dividing by 9. Soybeans were harvested on October 10 and yields were calculated and adjusted to bu/A at 13% moisture.

[2] = applied in a T-Band, August 12 and August 19

OC(Cn1cncn1)(c1ccc(F)cc1)c1ccccc1F (racemic) [flutriafol, (RS)-2,4′-difluoro-α-(1H-1,2,4-triazol-1-ylmethyl)benzhydryl alcohol]
Dia (mm) 1 day (Fusarium virguliforme; 0.01 ppm in PDA): 0 mm
Dia (mm) 3 days (Fusarium virguliforme; 0.01 ppm in PDA): 10.4 mm
Dia (mm) 5 days (Fusarium virguliforme; 0.01 ppm in PDA): 15.6 mm
Dia (mm) 7 days (Fusarium virguliforme; 0.01 ppm in PDA): 19.6 mm
Dia (mm) 1 day (Fusarium virguliforme; 0.1 ppm in PDA): 0 mm
Dia (mm) 3 days (Fusarium virguliforme; 0.1 ppm in PDA): 10.1 mm
Dia (mm) 5 days (Fusarium virguliforme; 0.1 ppm in PDA): 16.4 mm
Dia (mm) 7 days (Fusarium virguliforme; 0.1 ppm in PDA): 19.8 mm
Dia (mm) 1 day (Fusarium virguliforme; 1 ppm in PDA): 0 mm
Dia (mm) 3 days (Fusarium virguliforme; 1 ppm in PDA): 9.6 mm
Dia (mm) 5 days (Fusarium virguliforme; 1 ppm in PDA): 15.3 mm
Dia (mm) 7 days (Fusarium virguliforme; 1 ppm in PDA): 20 mm
Dia (mm) 1 day (Fusarium virguliforme; 10 ppm in PDA): 0 mm
Dia (mm) 3 days (Fusarium virguliforme; 10 ppm in PDA): 7.5 mm
Dia (mm) 5 days (Fusarium virguliforme; 10 ppm in PDA): 13.9 mm
Dia (mm) 7 days (Fusarium virguliforme; 10 ppm in PDA): 18.1 mm
Dia (mm) 1 day (Fusarium virguliforme; 100 ppm in PDA): 0 mm
Dia (mm) 3 days (Fusarium virguliforme; 100 ppm in PDA): 0 mm
Dia (mm) 5 days (Fusarium virguliforme; 100 ppm in PDA): 0 mm
Dia (mm) 7 days (Fusarium virguliforme; 100 ppm in PDA): 3 mm
Dia (mm) 1 day (Fusarium virguliforme; 250 ppm in PDA, 27-29° C.): 0 mm
Dia (mm) 3 days (Fusarium virguliforme; 250 ppm in PDA): 0 mm
Dia (mm) 5 days (Fusarium virguliforme; 250 ppm in PDA): 0 mm
Dia (mm) 7 days (Fusarium virguliforme; 250 ppm in PDA): 0 mm
soybean yield ([1]; T-band at 16, 24 or 32 oz/A, compared to the 'At Cracking' application and the untreated check): trend to higher soybean yield
Disease Index scores [1, 2]: numerically lower
SDS Incidence [1, 2]: numerically lower
